Source: patent US20030134292A1, “Thermostable DNA polymerases and methods of making same” (priority 2001, published 2003)

B1: T4 gene 32 Protein: T4 gene 32 Protein (protein, UniProt P03695 1-301, looked up)
Single-stranded DNA-binding …: MFKRKSTAELAAQMAKLNGNKGFSSEDKGEWKLKLDNAGNGQAVIRFLPSKNDEQAPFAILVNHGFKKNGKWYIETCSSTHGDYDSCPVCQYISKNDLYNTDNKEYSLVKRKTSYWANILVVKDPAAPENEGKVFKYRFGKKIWDKINAMIAVDVEMGETPVDVTCPWEGANFVLKVKQVSGFSNYDESKFLNQSAIPNIDDESFQKELFEQMVDLSEMTSKDKFKSFEELNTKFGQVMGTAVMGGAAATAAKKADKVADDLDAFNVDDFNTKTEDDFMSSSSGSSSSADDTDLDDLLNDL

Key:
Type in all cases: biochemical
[1] = molecular target: T1, Taq Δ271 F667Y E681W (polymerase B) (Thermus aquaticus, UniProt P19821, E681W/F272M/F667Y); experiment: DNA polymerase activity assay with detergent or additive, Taq Δ271 F667Y E681W purified without detergent
T1 construct: made in house; host or cells: E. coli
T1 sequence (P19821 272-832 F272M/F667Y/E681W): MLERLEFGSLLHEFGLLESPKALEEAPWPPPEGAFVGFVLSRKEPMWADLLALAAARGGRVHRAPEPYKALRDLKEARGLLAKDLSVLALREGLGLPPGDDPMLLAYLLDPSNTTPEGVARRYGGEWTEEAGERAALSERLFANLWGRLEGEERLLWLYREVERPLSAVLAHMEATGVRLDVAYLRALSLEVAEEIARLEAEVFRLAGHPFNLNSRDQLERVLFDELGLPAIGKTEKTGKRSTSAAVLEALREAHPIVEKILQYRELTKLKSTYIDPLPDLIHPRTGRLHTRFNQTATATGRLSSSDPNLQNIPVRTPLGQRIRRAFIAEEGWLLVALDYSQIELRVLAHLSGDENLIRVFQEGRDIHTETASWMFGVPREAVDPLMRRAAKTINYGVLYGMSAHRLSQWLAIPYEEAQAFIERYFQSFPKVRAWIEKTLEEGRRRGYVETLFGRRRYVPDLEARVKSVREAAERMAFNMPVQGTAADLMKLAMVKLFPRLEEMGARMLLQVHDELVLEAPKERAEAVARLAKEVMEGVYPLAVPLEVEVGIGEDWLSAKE
Description: (§1) DNA polymerase activity was measured by running reactions of 50 μL containing 25 mM TAPS (tris-hydroxymethyl-methylaminopropane sulfonic acid) buffer, pH 9.3 (measured at 25° C.), 50 mM KCl, 2 mM MgCl2, 1 mM 2-mercaptoethanol, 0.2 mM each of dGTP, dCTP, dTTP, 0.2 mM [α-^33P]-dATP (0.05-0.1 Ci/mmol) and 0.4 mg/mL activated salmon sperm DNA. The reaction mixture (45 μL) was pre-heated to 74° C. and diluted polymerase (5 μL) added with thorough mixing. After 10 minutes of further incubation at 74° C., the reaction was stopped by the addition of 10 μL of 60 mM EDTA and the entire mixture placed at 0° C. Acid-precipitable radioactivity was determined on an aliquot ([…]) by diluting with 1 ml of 2 mM EDTA containing 0.05 mg/ml salmon sperm DNA and adding 1 mL of 20% (w/v) trichloroacetic acid, 2% (w/v) sodium pyrophosphate (Na4P2O7 10H2O) and incubating on ice for at least 15 minutes. Precipitated DNA was collected by filtering through 2.4 cm GFC filter disks (Schleichter and Schuell) and washed 7 times with 5ml of with 1 N HCl, 0.1 M sodium pyrophosphate. The filter was placed in 3 ml of aqueous scintillation counting fluid and ^33P-specific radioactivity determined by scintillation counting.
(§2) For the assays presented in Tables 5 and 6, the polymerase was diluted 10-5000 fold in a buffer containing 25 mM Tris-HCl pH 8.0, 50 mM KCl, 1 mM 2-mercaptoethanol, and the indicated concentration of detergent or other additive. Where possible, only reactions which incorporated 20- 100 pmol of dAMP in 10 minutes were used for calculation of activity.

[2] = molecular target: T2, Tth Δ273 F668Y (polymerase C) (Thermus thermophilus, UniProt P52028, F274M/F669Y); experiment: DNA polymerase activity assay with detergent or additive, Tth Δ273 F668Y purified without detergent
T2 construct: made in house; host or cells: E. coli
T2 sequence (P52028 274-834 F274M/F669Y): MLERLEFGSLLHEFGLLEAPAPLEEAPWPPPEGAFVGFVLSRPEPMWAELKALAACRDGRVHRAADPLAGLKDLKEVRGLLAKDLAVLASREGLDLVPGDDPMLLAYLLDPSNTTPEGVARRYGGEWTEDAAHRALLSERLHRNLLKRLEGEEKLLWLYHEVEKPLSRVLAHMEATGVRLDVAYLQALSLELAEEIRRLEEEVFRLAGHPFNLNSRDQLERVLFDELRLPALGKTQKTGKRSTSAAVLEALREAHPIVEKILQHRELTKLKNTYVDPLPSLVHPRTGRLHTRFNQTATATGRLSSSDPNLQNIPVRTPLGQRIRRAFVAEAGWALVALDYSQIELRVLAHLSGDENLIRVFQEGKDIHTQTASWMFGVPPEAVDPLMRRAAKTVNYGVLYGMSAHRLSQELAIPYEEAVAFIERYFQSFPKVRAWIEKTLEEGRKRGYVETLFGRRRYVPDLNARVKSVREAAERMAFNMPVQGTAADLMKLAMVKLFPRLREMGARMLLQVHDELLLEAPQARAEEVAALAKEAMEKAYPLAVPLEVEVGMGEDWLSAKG
Description: as §1, §2

[3] = molecular target: T3, Taq Δ271 F667Y (polymerase A) (Thermus aquaticus, UniProt P19821, F272M/F667Y); experiment: DNA polymerase activity assay with detergent or additive, Taq Δ271 F667Y purified without detergent
T3 construct: made in house; host or cells: E. coli
T3 sequence (P19821 272-832 F272M/F667Y): as the sequence (P19821 272-832 F272M/F667Y/E681W) above, with W410E counted along it
Description: as §1, §2

[4] = additive final concentration 0.01% (w/v)
[5] = additive final concentration 0.05% (w/v)
[6] = additive final concentration 0.1% (w/v)
[7] = additive final concentration 0.001% (w/v) in assay reaction mixture
[8] = additive final concentration 0.5% (w/v)
[9] = additive final concentration 0.85% (w/v)
[10] = additive final concentration 60 μg/ml
[11] = additive final concentration 20 μg/ml
[12] = additive final concentration 100 μg/ml

Molecule	Taq Δ271 F667Y E681W activity relative to 0.5% each NP-40 and Tween 20 [1, 4]	Taq Δ271 F667Y E681W activity relative to 0.5% each NP-40 and Tween 20 [1, 5]	Taq Δ271 F667Y E681W activity relative to 0.5% each NP-40 and Tween 20 [1, 6]	Tth Δ273 F668Y activity relative to 0.5% each NP-40 and Tween 20 [2, 4]	Tth Δ273 F668Y activity relative to 0.5% each NP-40 and Tween 20 [2, 5]	Tth Δ273 F668Y activity relative to 0.5% each NP-40 and Tween 20 [2, 6]	Taq Δ271 F667Y activity relative to 0.5% each NP-40 and Tween 20 [3, 4]	Taq Δ271 F667Y activity relative to 0.5% each NP-40 and Tween 20 [3, 5]	Taq Δ271 F667Y activity relative to 0.5% each NP-40 and Tween 20 [3, 6]	other results
C[C@H](CCC(=O)NCCC[N+](C)(C)CCCS(=O)(=O)[O-])[C@H]1CC[C@H]2[C@@H]3[C@H](O)C[C@@H]4C[C@H](O)CC[C@]4(C)[C@H]3C[C@H](O)[C@]12C [CHAPS, 3-[(3-Cholamidopropyl)dimethylammonio]-1-propanesulfonate]	− − − (Activity < 20%)	− − (Activity 20-50%)	− (Activity 50-60%)	− (Activity 50-60%)	− − (Activity 20-50%)	− − (Activity 20-50%)	− − (Activity 20-50%)	− (Activity 50-60%)	+ (Activity 60-70%)	–
C[C@H](CCC(=O)NCCC[N+](C)(C)CC(O)CS(=O)(=O)[O-])[C@H]1CC[C@H]2[C@@H]3[C@H](O)C[C@@H]4C[C@H](O)CC[C@]4(C)[C@H]3C[C@H](O)[C@]12C (some centres unmarked) [CHAPSO, 3-[(3-Cholamidopropyl)dimethylammonio]-2-hydroxy-1-propanesulfonate]	− − − (Activity < 20%)	− − (Activity 20-50%)	− − (Activity 20-50%)	− (Activity 50-60%)	− − (Activity 20-50%)	− − (Activity 20-50%)	− − − (Activity < 20%)	− − (Activity 20-50%)	+ (Activity 60-70%)	–
CC1=NCC[C@@H](C(=O)O)N1 [Ectoin]	− − − (Activity < 20%)	–	− − − (Activity < 20%)	− − − (Activity < 20%)	–	− − − (Activity < 20%)	− − − (Activity < 20%)	–	− − − (Activity < 20%)	Taq Δ271 F667Y E681W activity relative to 0.5% each NP-40 and Tween 20 [1, 7]: − − − (Activity < 20%); Tth Δ273 F668Y activity relative to 0.5% each NP-40 and Tween 20 [2, 7]: − − − (Activity < 20%); Taq Δ271 F667Y activity relative to 0.5% each NP-40 and Tween 20 [3, 7]: − − − (Activity < 20%)
CC1=NC[C@H](O)[C@@H](C(=O)O)N1 [Hydroxyectoin]	− − − (Activity < 20%)	− − − (Activity < 20%)	–	− − − (Activity < 20%)	− − − (Activity < 20%)	–	− − − (Activity < 20%)	− − − (Activity < 20%)	–	–
CCCCCCCC(=O)N(C)C[C@H](O)[C@@H](O)[C@H](O)[C@H](O)CO [Mega-8, Ocatanoyl-N-mehtylglucamide]	− − − (Activity < 20%)	–	− (Activity 50-60%)	–	–	+ + (Activity 70-80%)	–	–	+ + (Activity 70-80%)	Taq Δ271 F667Y E681W activity relative to 0.5% each NP-40 and Tween 20 [1, 7]: − − − (Activity < 20%); Taq Δ271 F667Y E681W activity relative to 0.5% each NP-40 and Tween 20 [1, 8]: + + + (Activity > 80% (relative to activity using 0.5% each NP-40 and Tween 20)); Taq Δ271 F667Y E681W activity relative to 0.5% each NP-40 and Tween 20 [1, 9]: − − (Activity 20-50%); Polymerase B Activity (%) ([1]; detergent 0.5% (w/v)): 71%; Tth Δ273 F668Y activity relative to 0.5% each NP-40 and Tween 20 [2, 8]: + (Activity 60-70%); Tth Δ273 F668Y activity relative to 0.5% each NP-40 and Tween 20 [2, 9]: + (Activity 60-70%); Polymerase C Activity (%) ([2]; detergent 0.5% (w/v)): 84.5%; Taq Δ271 F667Y activity relative to 0.5% each NP-40 and Tween 20 [3, 9]: + (Activity 60-70%); Polymerase A Activity (%) ([3]; detergent 0.5% (w/v)): 76.6%
CCCCCCCCC(=O)N(C)C[C@H](O)[C@@H](O)[C@H](O)[C@H](O)CO [Mega-9, Nonyl-N-methylglucamide]	− − − (Activity < 20%)	+ + (Activity 70-80%)	–	− − (Activity 20-50%)	+ + + (Activity > 80% (relative to activity using 0.5% each NP-40 and Tween 20))	–	− − − (Activity < 20%)	− − (Activity 20-50%)	–	Polymerase B Activity (%) ([1]; detergent 0.05% (w/v)): 82%; Polymerase C Activity (%) ([2]; detergent 0.05% (w/v)): 74%; Polymerase A Activity (%) ([3]; detergent 0.05% (w/v)): 71.2%
CCCCCCCCCC(=O)N(C)C[C@H](O)[C@@H](O)[C@H](O)[C@H](O)CO [Mega-10, D-decanoyl-N-methyl glucamide]	− − − (Activity < 20%)	+ + + (Activity > 80% (relative to activity using 0.5% each NP-40 and Tween 20))	–	+ + (Activity 70-80%)	− − (Activity 20-50%)	–	− − (Activity 20-50%)	+ + (Activity 70-80%)	–	Polymerase B Activity (%) ([1]; detergent 0.05% (w/v)): 73%; Tth Δ273 F668Y activity relative to 0.5% each NP-40 and Tween 20 [2, 7]: − − (Activity 20-50%); Polymerase C Activity (%) ([2]; detergent 0.05% (w/v)): 100%; Taq Δ271 F667Y activity relative to 0.5% each NP-40 and Tween 20 [3, 7]: − − − (Activity < 20%); Polymerase A Activity (%) ([3]; detergent 0.05% (w/v)): 94%
CCCCCCCCCCCCCC[N+](C)(C)CCCS(=O)(=O)[O-] [Zwittergent 3-14]	− − − (Activity < 20%)	–	–	–	–	–	–	–	–	–
Bovine Serum Albumin (BSA): Bovine Serum Albumin	–	–	–	–	–	–	–	–	–	Tth Δ273 F668Y activity relative to 0.5% each NP-40 and Tween 20 [2, 10]: − − (Activity 20-50%); Taq Δ271 F667Y activity relative to 0.5% each NP-40 and Tween 20 [3, 10]: − (Activity 50-60%)
E. coli Single-Stranded DNA Binding Protein: E. coli Single-Stranded DNA Binding Protein	–	–	–	–	–	–	–	–	–	Tth Δ273 F668Y activity relative to 0.5% each NP-40 and Tween 20 [2, 11]: − − − (Activity < 20%); Tth Δ273 F668Y activity relative to 0.5% each NP-40 and Tween 20 [2, 12]: − − − (Activity < 20%)
gelatin	–	–	–	–	–	–	–	–	–	Tth Δ273 F668Y activity relative to 0.5% each NP-40 and Tween 20 ([2]; additive final concentration 50 μg/ml): − − − (Activity < 20%)
B1	–	–	–	–	–	–	–	–	–	Tth Δ273 F668Y activity relative to 0.5% each NP-40 and Tween 20 [2, 11]: − − − (Activity < 20%); Tth Δ273 F668Y activity relative to 0.5% each NP-40 and Tween 20 [2, 12]: − − − (Activity < 20%)
